Measured values as given in patent US20090118354A1, “Liquid Pharmaceutical Formulations of Docetaxel” (MAYNE PHARMA LIMITED, priority 2005, published 2009).

Assay: Accelerated stability testing: impurity analysis by reverse phase HPLC
Type: physicochemical
Method: Each of the formulations prepared was subjected to accelerated stability testing at 40° C.
The analysis of the impurities was undertaken using reverse phase High Performance Liquid Chromatography (HPLC). HPLC is a technique that is widely used and well known in the art. HPLC can be used to measure the potency of the docetaxel where potency is defined as a percentage of the initial concentration of docetaxel. HPLC can also be used to measure the relative proportions of known and unknown impurities in a docetaxel formulation. Any suitable HPLC method which will separate the impurities may be used.
Impurity levels were calculated by peak area normalisation.

[1] = Example 1, one month, accelerated stability 40° C.
[2] = Example 2, one month, accelerated stability 40° C.
[3] = Example 8, Initial (Docetaxel = docetaxel itself)

In the case of CC(=O)O[C@@]12CO[C@@H]1C[C@H](O)[C@@]1(C)C(=O)[C@H](O)C3=C(C)[C@@H](OC(=O)[C@H](O)[C@@H](NC(=O)OC(C)(C)C)c4ccccc4)C[C@@](O)([C@@H](OC(=O)c4ccccc4)[C@H]21)C3(C)C [Docetaxel, (2R,3S)-N-carboxy-3-phenylisoserine,N-tert-butylester, 13 ester with 5β-20-epoxy-1,2α,4,7β,10β,13α-hexahydroxytax-11-en-9-one 4-acetate 2 benzoate], the “Impurity B (RRT = 0.89)” value (Example 1, initial time point) is reported as 0.08 % peak area, the “Impurity E (RRT = 1.33)” value (Example 1, initial time point) is reported as 0.07 % peak area and the “Impurity F (RRT = 1.47)” value (Example 1, initial time point) is reported as 0.10 % peak area. The “Total Impurities” value (Example 1, initial time point) was 0.25 % peak area, the “Impurity B (RRT = 0.89)” value [1] was 0.08 % peak area and the “Impurity E (RRT = 1.33)” value [1] was 0.07 % peak area. The “Impurity F (RRT = 1.47)” value [1] was 0.10 % peak area, the “Total Impurities” value [1] was 0.25 % peak area and the “Impurity E (RRT = 1.34)” value (Example 2, initial time point) was 0.16 % peak area. For the same molecule, the “Impurity F (RRT = 1.48)” value (Example 2, initial time point) was 0.09 % peak area, the “Total Impurities” value (Example 2, initial time point) was 0.25 % peak area and the “Impurity E (RRT = 1.34)” value [2] was 0.16 % peak area. For the same molecule, the “Impurity F (RRT = 1.48)” value [2] was 0.09 % peak area, the “Total Impurities” value [2] was 0.25 % peak area and the “Impurity RRT 0.866” value [3] was 0.05 % peak area. For the same molecule, the “Impurity RRT 1.821” value [3] was 0.08 % peak area and the Total impurity [3] was 0.13 % peak area.
